Measured values: patent publication US20230123334A1, “AMINO LIPID COMPOUND, PREPARATION METHOD THEREFOR, AND APPLICATION THEREOF” (SHENZHEN SHENXIN BIOTECHNOLOGY CO., LTD., priority 2020, published 2023)

How the values were obtained:
HEK293 cells [1] = test: Preliminary screening as DNA vectors, GFP transfection of HEK293 cells; assay type: cell-based; conditions: HEK293 cells; lipid/DOPE liposome with 75 ng plasmid DNA (psin-EGFP-IRES-Puro); number of cells expressing GFP divided by total number of nuclei (Hoechst)
In short: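 HEK293 cells in DMEM/10% FBS transfected with 75 ng EGFP plasmid per well complexed with amino lipid/DOPE liposomes in pH 5.6 sodium acetate. Hoechst nuclear stain added 20-24 h post-transfection, then cells cultured another 20-24 h. Confocal imaging gives GFP-positive cells as % of total nuclei.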

HEK293 cells [2] = test: Preliminary screening as mRNA vectors, EGFP mRNA transfection of HEK293 cells; assay type: cell-based; conditions: HEK293 cells, 96-well plates, EGFP mRNA 50 ng per well; percentage of GFP fluorescent cells relative to total number of cells (Hoechst)
In short: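 HEK293 cells in DMEM plus 10% FBS transfected in 96-well format with 50 ng EGFP mRNA per well; Lipofectamine2000 served as positive control. Read-out is the percentage of GFP-fluorescent cells among total cells, counted by Hoechst nuclear stain.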

| SMILES | Absolute DNA transfection efficiency in HEK293 cells (HEK293 cells [1]) [%] | Absolute mRNA transfection efficiency in HEK293 cells (HEK293 cells [2]) [%] |
| --- | --- | --- |
| CCCCCCCCCCCCCCCCCCSc1nc(NCCCN2CCN(C)CC2)nc(SCCCCCCCCCCC)n1 [Compound S11S18D9] | 0.9 | 0.3 |
| CCCCCCCCCCCCCCCCCCSc1nc(NCC2CCN(C)CC2)nc(SCCCCCCCCCCC)n1 [Compound S11S18D10] | 20.9 | 92.0 |
| CCCCCCCCCCCCSc1nc(NCCN(C)C)nc(SCCCCCCCCCCCC)n1 [Compound S12S12D1] | 0.5 | 0.6 |
| CCCCCCCCCCCCSc1nc(NCCN2CCOCC2)nc(SCCCCCCCCCCCC)n1 [Compound S12S12D2] | 0.1 | 0.0 |
| CCCCCCCCCCCCSc1nc(NCCN2CCCC2)nc(SCCCCCCCCCCCC)n1 [Compound S12S12D3] | 2.1 | 11.0 |
| CCCCCCCCCCCCSc1nc(NCCN2CCCCC2)nc(SCCCCCCCCCCCC)n1 [Compound S12S12D4] | 4.1 | 36.3 |
| CCCCCCCCCCCCSc1nc(NCCN2CCN(C)CC2)nc(SCCCCCCCCCCCC)n1 [Compound S12S12D5] | 0.4 | 3.1 |
| CCCCCCCCCCCCSc1nc(NCCCN(C)C)nc(SCCCCCCCCCCCC)n1 [Compound S12S12D6] | 3.9 | 2.6 |
| CCCCCCCCCCCCSc1nc(NCCN(CC)CC)nc(SCCCCCCCCCCCC)n1 [Compound S12S12D7] | 3.3 | 1.3 |
| CCCCCCCCCCCCSc1nc(NCCCN2CCOCC2)nc(SCCCCCCCCCCCC)n1 [Compound S12S12D8] | 3.4 | 3.8 |
| CCCCCCCCCCCCSc1nc(NCCCN2CCN(C)CC2)nc(SCCCCCCCCCCCC)n1 [Compound S12S12D9] | 1.9 | 1.3 |
| CCCCCCCCCCCCSc1nc(NCC2CCN(C)CC2)nc(SCCCCCCCCCCCC)n1 [Compound S12S12D10] | 2.7 | 12.8 |
| CCCCCCCCCCCCCCSc1nc(NCCN(C)C)nc(SCCCCCCCCCCCC)n1 [Compound S12S14D1] | 0.6 | 0.0 |
| CCCCCCCCCCCCCCSc1nc(NCCN2CCOCC2)nc(SCCCCCCCCCCCC)n1 [Compound S12S14D2] | 0.1 | 0.2 |
| CCCCCCCCCCCCCCSc1nc(NCCN2CCCC2)nc(SCCCCCCCCCCCC)n1 [Compound S12S14D3] | 6.5 | 6.3 |
| CCCCCCCCCCCCCCSc1nc(NCCN2CCCCC2)nc(SCCCCCCCCCCCC)n1 [Compound S12S14D4] | 6.7 | 14.0 |
| CCCCCCCCCCCCCCSc1nc(NCCN2CCN(C)CC2)nc(SCCCCCCCCCCCC)n1 [Compound S12S14D5] | 0.2 | 3.6 |
| CCCCCCCCCCCCCCSc1nc(NCCCN(C)C)nc(SCCCCCCCCCCCC)n1 [Compound S12S14D6] | 4.0 | 4.6 |
| CCCCCCCCCCCCCCSc1nc(NCCN(CC)CC)nc(SCCCCCCCCCCCC)n1 [Compound S12S14D7] | 3.3 | 0.9 |
| CCCCCCCCCCCCCCSc1nc(NCCCN2CCOCC2)nc(SCCCCCCCCCCCC)n1 [Compound S12S14D8] | 3.7 | 1.3 |
| CCCCCCCCCCCCCCSc1nc(NCCCN2CCN(C)CC2)nc(SCCCCCCCCCCCC)n1 [Compound S12S14D9] | 0.8 | 2.5 |

| SMILES | Absolute DNA transfection efficiency in HEK293 cells (HEK293 cells [1]) [%] | Absolute mRNA transfection efficiency in HEK293 cells (HEK293 cells [2]) [%] |
| --- | --- | --- |
| CCCCCCCCCCCCCCSc1nc(NCC2CCN(C)CC2)nc(SCCCCCCCCCCCC)n1 [Compound S12S14D10] | 6.5 | 30.4 |
| CCCCCCCCCCCCCCCSc1nc(NCCN(C)C)nc(SCCCCCCCCCCCC)n1 [Compound S12S15D1] | 0.8 | 4.1 |
| CCCCCCCCCCCCCCCSc1nc(NCCN2CCOCC2)nc(SCCCCCCCCCCCC)n1 [Compound S12S15D2] | 0.5 | 0.0 |
| CCCCCCCCCCCCCCCSc1nc(NCCN2CCCC2)nc(SCCCCCCCCCCCC)n1 [Compound S12S15D3] | 2.9 | 9.7 |
| CCCCCCCCCCCCCCCSc1nc(NCCN2CCCCC2)nc(SCCCCCCCCCCCC)n1 [Compound S12S15D4] | 3.8 | 3.3 |
| CCCCCCCCCCCCCCCSc1nc(NCCN2CCN(C)CC2)nc(SCCCCCCCCCCCC)n1 [Compound S12S15D5] | 0.1 | 1.4 |
| CCCCCCCCCCCCCCCSc1nc(NCCCN(C)C)nc(SCCCCCCCCCCCC)n1 [Compound S12S15D6] | 4.4 | 0.0 |
| CCCCCCCCCCCCCCCSc1nc(NCCN(CC)CC)nc(SCCCCCCCCCCCC)n1 [Compound S12S15D7] | 1.4 | 0.0 |
| CCCCCCCCCCCCCCCSc1nc(NCCCN2CCOCC2)nc(SCCCCCCCCCCCC)n1 [Compound S12S15D8] | 3.1 | 3.2 |
| CCCCCCCCCCCCCCCSc1nc(NCCCN2CCN(C)CC2)nc(SCCCCCCCCCCCC)n1 [Compound S12S15D9] | 2.0 | 0.9 |
| CCCCCCCCCCCCCCCSc1nc(NCC2CCN(C)CC2)nc(SCCCCCCCCCCCC)n1 [Compound S12S15D10] | 9.9 | 43.1 |
| CCCCCCCCCCCCCCCCSc1nc(NCCN(C)C)nc(SCCCCCCCCCCCC)n1 [Compound S12S16D1] | 0.6 | 0.0 |
| CCCCCCCCCCCCCCCCSc1nc(NCCN2CCOCC2)nc(SCCCCCCCCCCCC)n1 [Compound S12S16D2] | 0.0 | 0.0 |
| CCCCCCCCCCCCCCCCSc1nc(NCCN2CCCC2)nc(SCCCCCCCCCCCC)n1 [Compound S12S16D3] | 2.0 | 0.1 |
| CCCCCCCCCCCCCCCCSc1nc(NCCN2CCCCC2)nc(SCCCCCCCCCCCC)n1 [Compound S12S16D4] | 3.3 | 6.3 |
| CCCCCCCCCCCCCCCCSc1nc(NCCN2CCN(C)CC2)nc(SCCCCCCCCCCCC)n1 [Compound S12S16D5] | 0.1 | 0.1 |
| CCCCCCCCCCCCCCCCSc1nc(NCCCN(C)C)nc(SCCCCCCCCCCCC)n1 [Compound S12S16D6] | 2.7 | 1.2 |
| CCCCCCCCCCCCCCCCSc1nc(NCCN(CC)CC)nc(SCCCCCCCCCCCC)n1 [Compound S12S16D7] | 0.7 | 0.0 |
| CCCCCCCCCCCCCCCCSc1nc(NCCCN2CCOCC2)nc(SCCCCCCCCCCCC)n1 [Compound S12S16D8] | 0.2 | 0.0 |
| CCCCCCCCCCCCCCCCSc1nc(NCCCN2CCN(C)CC2)nc(SCCCCCCCCCCCC)n1 [Compound S12S16D9] | 0.5 | 0.0 |
